Assay results reported in patent publication US8492375B2, “1-benzoyl substituted diazepine derivatives as selective histamine H3 receptor agonists” (Glaxo Group Limited, priority 2003, dated 2013).
Where a name gives a salt, the structure may show the parent alone.

How the values were obtained:
histamine H3 receptor = histamine H3 receptor (Homo sapiens, UniProt Q9Y5N1); assay: Histamine H3 functional antagonist assay ([35S]GTPγS binding, SPA, membranes of CHO K1 cells); settings: pKb, antagonism of 0.3 μM histamine, membranes with human H3 receptor
Protocol: Ligated DNA was transformed into competent DH5α E. coli host bacterial cells and plated onto Luria Broth (LB) agar containing Zeocin™ (an antibiotic which allows the selection of cells expressing the sh ble gene which is present on pGene and pSwitch) at 50 μg ml^−1. Colonies containing the re-ligated plasmid were identified by restriction analysis. DNA for transfection into mammalian cells was prepared from 250 ml cultures of the host bacterium containing the pGeneH3 plasmid and isolated using a DNA preparation kit (Qiagen Midi-Prep) as per manufacturers guidelines (Qiagen).
CHO K1 cells previously transfected with the pSwitch regulatory plasmid (InVitrogen) were seeded at 2×10e6 cells per T75 flask in Complete Medium, containing Hams F12 (GIBCOBRL, Life Technologies) medium supplemented with 10% v/v dialysed foetal bovine serum, L-glutamine, and hygromycin (100 μg ml^−1), 24 hours prior to use. Plasmid DNA was transfected into the cells using Lipofectamine plus according to the manufacturers guidelines (InVitrogen). 48 hours post transfection cells were placed into complete medium supplemented with 500 μg ml^−1 Zeocin™
10-14 days post selection 10 nM Mifepristone (InVitrogen), was added to the culture medium to induce the expression of the receptor. […] Approximately 1×10e7 cells were examined for receptor expression by staining with a rabbit polyclonal antibody, 4a, raised against the N-terminal domain of the histamine H3 receptor, incubated on ice for 60 minutes, followed by two washes in sorting medium. […] Following two further washes with Sorting Medium, cells were filtered through a 50 μm Filcon™ (BD Biosciences) and then analysed on a FACS Vantage SE Flow Cytometer fitted with an Automatic Cell Deposition Unit. […] Positively stained cells were sorted as single cells into 96-well plates, containing Complete Medium containing 500 μg ml^−1 Zeocin™ and allowed to expand before reanalysis for receptor expression via antibody and ligand binding studies.
(ii) Membrane Preparation from Cultured Cells
All steps of the protocol are carried out at 4° C. and with pre-cooled reagents. The cell pellet is resuspended in 10 volumes of buffer A2 containing 50 mM N-2-hydroxyethylpiperazine-N′-2-ethanesulfonic acid (HEPES) (pH 7.40) supplemented with 10e-4M leupeptin (acetyl-leucyl-leucyl-arginal; Sigma L2884), 25 μg/ml bacitracin (Sigma B0125), 1 mM ethylenediamine tetra-acetic acid (EDTA), 1 mM phenylmethylsulfonyl fluoride (PMSF) and 2×10e-6M pepstain A (Sigma). The cells are then homogenised by 2×15 second bursts in a 1 liter glass Waring blender, followed by centrifugation at 500 g for 20 minutes. The supernatant is then spun at 48,000 g for 30 minutes. The pellet is resuspended in 4 volumes of buffer A2 by vortexing for 5 seconds, followed by homogenisation in a Dounce homogeniser (10-15 strokes). At this point the preparation is aliquoted into polypropylene tubes and stored at −70° C.
(II) Histamine H3 Functional Antagonist Assay
The plate is then incubated on a shaker at room temperature for 30 minutes followed by centrifugation for 5 minutes at 1500 rpm. The plate is read between 3 and 6 hours after completion of centrifuge run in a Wallac Microbeta counter on a 1 minute normalised tritium count protocol. Data is analysed using a 4-parameter logistic equation. Basal activity used as minimum i.e. histamine not added to well.

human H1 receptor = target: T1, human H1 receptor (Homo sapiens, UniProt P35367); assay: Histamine H1 functional antagonist assay (FLIPR, histamine induced increase in fluorescence); assay type: cell-based; settings: Chinese hamster ovary cells stably expressing the human H1 receptor; read-out: antagonism pKb, histamine H1 functional antagonist assay (converted)
T1 construct: expressed in transfected cells
Protocol: (iii) Generation of Histamine H1 Cell Line
The human H1 receptor was cloned using known procedures described in the literature [Biochem. Biophys. Res. Commun.
(III) Histamine H1 Functional Antagonist Assay
Compounds are assayed in a black walled clear bottom 384-well plate with cells seeded at 10000 cells/well. […] Each well is treated with 10 μl of a solution of FLUO4AM (10 μM in Tyrodes buffer at pH 7.40) and plates are then incubated for 60 minutes at 37° C. Wells are then washed with Tyrodes buffer using a EMBLA cell washer system, leaving 400 buffer in each well, and then treated with 100 of test compound in Tyrodes buffer. Each plate is incubated for 30 min to allow equilibration of the test compound with the receptor. Each well is then treated with 100 of histamine solution in Tyrodes buffer.
Functional antagonism is indicated by a suppression of histamine induced increase in fluorescence, as measured by the FLIPR system (Molecular Devices). By means of concentration effect curves, functional potencies are determined using standard pharmacological mathematical analysis.

Chain of histamine H3 receptor (Q9Y5N1 whole entry): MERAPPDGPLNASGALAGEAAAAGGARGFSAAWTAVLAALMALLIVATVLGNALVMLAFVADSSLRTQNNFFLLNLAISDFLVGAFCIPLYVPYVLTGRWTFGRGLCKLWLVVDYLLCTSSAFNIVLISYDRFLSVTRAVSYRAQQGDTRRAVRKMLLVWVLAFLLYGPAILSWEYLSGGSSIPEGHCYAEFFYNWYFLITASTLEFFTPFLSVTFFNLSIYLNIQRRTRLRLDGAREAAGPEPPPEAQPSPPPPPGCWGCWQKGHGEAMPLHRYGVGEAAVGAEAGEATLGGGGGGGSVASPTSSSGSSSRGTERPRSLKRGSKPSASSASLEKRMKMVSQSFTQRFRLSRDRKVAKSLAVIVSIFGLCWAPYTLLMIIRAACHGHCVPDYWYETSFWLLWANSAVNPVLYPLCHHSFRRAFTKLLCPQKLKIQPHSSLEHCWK
T1 sequence (P35367 whole entry): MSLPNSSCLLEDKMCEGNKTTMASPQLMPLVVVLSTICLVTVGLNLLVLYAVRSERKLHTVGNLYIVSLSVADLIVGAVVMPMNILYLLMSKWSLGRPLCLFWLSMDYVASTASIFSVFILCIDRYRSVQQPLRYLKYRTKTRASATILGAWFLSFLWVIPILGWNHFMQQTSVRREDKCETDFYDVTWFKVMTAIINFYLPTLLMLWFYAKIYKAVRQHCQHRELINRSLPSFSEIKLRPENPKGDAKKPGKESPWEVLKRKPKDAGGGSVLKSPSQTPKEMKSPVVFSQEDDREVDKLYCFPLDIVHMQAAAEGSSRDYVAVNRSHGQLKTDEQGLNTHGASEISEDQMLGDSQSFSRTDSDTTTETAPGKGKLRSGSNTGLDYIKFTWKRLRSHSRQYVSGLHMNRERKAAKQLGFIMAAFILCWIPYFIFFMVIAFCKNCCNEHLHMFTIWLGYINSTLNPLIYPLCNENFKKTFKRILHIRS

With `O=C(c1ccc(-c2ncco2)cc1)N1CCCN(C2CCC2)CC1` [Example 56, 1-Cyclobutyl-4-{[4-(1,3-oxazol-2-yl)phenyl]carbonyl}hexahydro-1H-1,4-diazepine hydrochloride] the Kb (histamine H3 receptor) was at most 1 nM.
`Cc1noc(-c2ccc(C(=O)N3CCCN(C4CCC4)CC3)cc2)n1` [Example 58, 1-Cyclobutyl-4-{[4-(3-methyl-1,2,4-oxadiazol-5-yl)phenyl]carbonyl}hexahydro-4H-1,4-diazepine hydrochloride] was tested, and the Kb (histamine H3 receptor) was under 0.316 nM.
`CC(=O)c1ccc(-c2ccc(C(=O)N3CCCN(C4CCC4)CC3)cc2)cc1` [Example 2, 1-{4′-[(4-Cyclobutylhexahydro-1H-1,4-diazepin-1-yl)carbonyl]-4-biphenylyl}ethanone hydrochloride] showed a Kb (human H1 receptor) of over 1000 nM and a Kb (histamine H3 receptor) of under 0.316 nM.
Molecule `CNC(=O)c1ccc(-c2ccc(C(=O)N3CCCN(C4CCC4)CC3)cc2)cn1` [Example 13, 5-{4-[(4-Cyclobutylhexahydro-1H-1,4-diazepin-1-yl)carbonyl]phenyl}-N-methyl-2-pyridinecarboxamide hydrochloride] has a Kb (human H1 receptor) of over 1000 nM and a Kb (histamine H3 receptor) of at most 1 nM.
For `N#Cc1ccc(-c2ccc(C(=O)N3CCCN(C4CCC4)CC3)cc2)cc1` [Example 1, 4′-[(4-Cyclobutylhexahydro-1H-1,4-diazepin-1-yl)carbonyl]-4-biphenylcarbonitrile hydrochloride], the Kb (human H1 receptor) was over 1000 nM and the Kb (histamine H3 receptor) was under 0.316 nM.
`CNC(=O)c1ccc(-c2ccc(C(=O)N3CCCN(C(C)C)CC3)cc2)cn1` [Example 16, N-Methyl-5-(4-{[4-(1-isopropyl)hexahydro-1H-1,4-diazepin-1-yl]carbonyl}phenyl)-2-pyridinecarboxamide hydrochloride] gave a Kb (human H1 receptor) of over 1000 nM and a Kb (histamine H3 receptor) of at most 1 nM.
`CC(C)N1CCCN(C(=O)c2ccc(-c3ccc(C#N)nc3)cc2)CC1` [Example 15, 5-(4-{[4-(1-Isopropyl)hexahydro-1H-1,4-diazepin-1-yl]carbonyl}phenyl)-2-cyanopyridine hydrochloride] gave a Kb (human H1 receptor) of over 1000 nM.
`O=C(c1ccc(-c2cnc(C(F)(F)F)nc2)cc1)N1CCCN(C2CCC2)CC1` [Example 23, 1-Cyclobutyl-4-({4-[2-(trifluoromethyl)-5-pyrimidinyl]phenyl}carbonyl)hexahydro-1H-1,4-diazepine hydrochloride] gave a Kb (human H1 receptor) of over 1000 nM and a Kb (histamine H3 receptor) of at most 1 nM.
In the case of `O=C(c1ccc(-c2ccc(C(F)(F)F)nc2)cc1)N1CCCN(C2CCC2)CC1` [Example 11, 1-Cyclobutyl-4-({4-[6-(trifluoromethyl)-3-pyridinyl]phenyl}carbonyl)hexahydro-1H-1,4-diazepine hydrochloride], the Kb (human H1 receptor) is reported as over 1000 nM and the Kb (histamine H3 receptor) is reported as under 0.316 nM.
With `O=C(c1ccc(-c2ccc(C(F)(F)F)nn2)cc1)N1CCCN(C2CCC2)CC1` [Example 22, 1-Cyclobutyl-4-({4-[6-(trifluoromethyl)-3-pyridazinyl]phenyl}carbonyl)hexahydro-1H-1,4-diazepine hydrochloride] the Kb (human H1 receptor) was over 1000 nM and the Kb (histamine H3 receptor) was at most 1 nM.
`N#Cc1ccc(-c2ccc(C(=O)N3CCCN(C4CCC4)CC3)cc2)cn1` [Example 14, 5-{4-[(4-Cyclobutylhexahydro-1H-1,4-diazepin-1-yl)carbonyl]phenyl}-2-cyanopyridine hydrochloride] gave a Kb (human H1 receptor) of over 1000 nM and a Kb (histamine H3 receptor) of at most 1 nM.
For `O=C(c1ccc(-n2cnnn2)cc1)N1CCCN(C2CCC2)CC1` [Example 7, 1-Cyclobutyl-4-{[4-tetrazol-1-yl)phenyl]carbonyl}hexahydro-1H-1,4-diazepine hydrochloride], the Kb (human H1 receptor) was over 1000 nM and the Kb (histamine H3 receptor) was at most 1 nM.
Molecule `CC(C)N1CCCN(C(=O)c2ccc(OC3CCOCC3)cc2)CC1` [Example 10, 1-(Isopropyl)-4-{[4-(tetrahydro-2H-pyran-4-yloxy)phenyl]carbonyl}hexahydro-1H-1,4-diazepine hydrochloride] has a Kb (human H1 receptor) of over 1000 nM.
In the case of `O=C(c1ccc(-c2nc(-c3ccc(F)cc3)cs2)cc1)N1CCCN(C2CCC2)CC1` [Example 8, 1-Cyclobutyl-4-({4-[4-(4-fluorophenyl)-1,3-thiazol-2-yl]phenyl}carbonyl) hexahydro-1H-1,4-diazepine hydrochloride], the Kb (human H1 receptor) is reported as over 1000 nM and the Kb (histamine H3 receptor) is reported as at most 1 nM.
Molecule `O=C(c1ccc(N2CCS(=O)(=O)CC2)cc1)N1CCCN(C2CCC2)CC1` [Example 9, 1-Cyclobutyl-4-{[4-(1,1-dioxido-4-thiomorpholinyl)phenyl]carbonyl}hexahydro-1H-1,4-diazepine hydrochloride] has a Kb (human H1 receptor) of over 1000 nM and a Kb (histamine H3 receptor) of at most 1 nM.
For `N#Cc1ccc(-c2ccc(C(=O)N3CCCN(C4CCC4)CC3)cc2)nc1` [Example 12, 6-{4-[(4-Cyclobutylhexahydro-1H-1,4-diazepin-1-yl)carbonyl]phenyl}-3-cyanopyridine hydrochloride], the Kb (human H1 receptor) was over 1000 nM and the Kb (histamine H3 receptor) was under 0.316 nM.
